# Assay results: patent US20150246938A1, “NOVEL OLEFIN DERIVATIVE” (SHIONOGI & CO., LTD., priority 2011, published 2015)
# Target: T1, recombinant human ACC2 (Homo sapiens, UniProt O00763)
# T1 construct: a cDNA encoding human ACC2 (27-2458) was cloned from human kidney cDNA library (Clontech); His-tag (N); made in house; host or cells: Sf-9 insect cells (Bac-to-Bac baculovirus)
# Assay: Measurement of inhibitory activity on human ACC2 (MALDI-TOF MS, acetyl CoA to malonyl CoA conversion)
# Assay type: biochemical
# Conditions: not given
# T1 sequence (O00763 27-2458): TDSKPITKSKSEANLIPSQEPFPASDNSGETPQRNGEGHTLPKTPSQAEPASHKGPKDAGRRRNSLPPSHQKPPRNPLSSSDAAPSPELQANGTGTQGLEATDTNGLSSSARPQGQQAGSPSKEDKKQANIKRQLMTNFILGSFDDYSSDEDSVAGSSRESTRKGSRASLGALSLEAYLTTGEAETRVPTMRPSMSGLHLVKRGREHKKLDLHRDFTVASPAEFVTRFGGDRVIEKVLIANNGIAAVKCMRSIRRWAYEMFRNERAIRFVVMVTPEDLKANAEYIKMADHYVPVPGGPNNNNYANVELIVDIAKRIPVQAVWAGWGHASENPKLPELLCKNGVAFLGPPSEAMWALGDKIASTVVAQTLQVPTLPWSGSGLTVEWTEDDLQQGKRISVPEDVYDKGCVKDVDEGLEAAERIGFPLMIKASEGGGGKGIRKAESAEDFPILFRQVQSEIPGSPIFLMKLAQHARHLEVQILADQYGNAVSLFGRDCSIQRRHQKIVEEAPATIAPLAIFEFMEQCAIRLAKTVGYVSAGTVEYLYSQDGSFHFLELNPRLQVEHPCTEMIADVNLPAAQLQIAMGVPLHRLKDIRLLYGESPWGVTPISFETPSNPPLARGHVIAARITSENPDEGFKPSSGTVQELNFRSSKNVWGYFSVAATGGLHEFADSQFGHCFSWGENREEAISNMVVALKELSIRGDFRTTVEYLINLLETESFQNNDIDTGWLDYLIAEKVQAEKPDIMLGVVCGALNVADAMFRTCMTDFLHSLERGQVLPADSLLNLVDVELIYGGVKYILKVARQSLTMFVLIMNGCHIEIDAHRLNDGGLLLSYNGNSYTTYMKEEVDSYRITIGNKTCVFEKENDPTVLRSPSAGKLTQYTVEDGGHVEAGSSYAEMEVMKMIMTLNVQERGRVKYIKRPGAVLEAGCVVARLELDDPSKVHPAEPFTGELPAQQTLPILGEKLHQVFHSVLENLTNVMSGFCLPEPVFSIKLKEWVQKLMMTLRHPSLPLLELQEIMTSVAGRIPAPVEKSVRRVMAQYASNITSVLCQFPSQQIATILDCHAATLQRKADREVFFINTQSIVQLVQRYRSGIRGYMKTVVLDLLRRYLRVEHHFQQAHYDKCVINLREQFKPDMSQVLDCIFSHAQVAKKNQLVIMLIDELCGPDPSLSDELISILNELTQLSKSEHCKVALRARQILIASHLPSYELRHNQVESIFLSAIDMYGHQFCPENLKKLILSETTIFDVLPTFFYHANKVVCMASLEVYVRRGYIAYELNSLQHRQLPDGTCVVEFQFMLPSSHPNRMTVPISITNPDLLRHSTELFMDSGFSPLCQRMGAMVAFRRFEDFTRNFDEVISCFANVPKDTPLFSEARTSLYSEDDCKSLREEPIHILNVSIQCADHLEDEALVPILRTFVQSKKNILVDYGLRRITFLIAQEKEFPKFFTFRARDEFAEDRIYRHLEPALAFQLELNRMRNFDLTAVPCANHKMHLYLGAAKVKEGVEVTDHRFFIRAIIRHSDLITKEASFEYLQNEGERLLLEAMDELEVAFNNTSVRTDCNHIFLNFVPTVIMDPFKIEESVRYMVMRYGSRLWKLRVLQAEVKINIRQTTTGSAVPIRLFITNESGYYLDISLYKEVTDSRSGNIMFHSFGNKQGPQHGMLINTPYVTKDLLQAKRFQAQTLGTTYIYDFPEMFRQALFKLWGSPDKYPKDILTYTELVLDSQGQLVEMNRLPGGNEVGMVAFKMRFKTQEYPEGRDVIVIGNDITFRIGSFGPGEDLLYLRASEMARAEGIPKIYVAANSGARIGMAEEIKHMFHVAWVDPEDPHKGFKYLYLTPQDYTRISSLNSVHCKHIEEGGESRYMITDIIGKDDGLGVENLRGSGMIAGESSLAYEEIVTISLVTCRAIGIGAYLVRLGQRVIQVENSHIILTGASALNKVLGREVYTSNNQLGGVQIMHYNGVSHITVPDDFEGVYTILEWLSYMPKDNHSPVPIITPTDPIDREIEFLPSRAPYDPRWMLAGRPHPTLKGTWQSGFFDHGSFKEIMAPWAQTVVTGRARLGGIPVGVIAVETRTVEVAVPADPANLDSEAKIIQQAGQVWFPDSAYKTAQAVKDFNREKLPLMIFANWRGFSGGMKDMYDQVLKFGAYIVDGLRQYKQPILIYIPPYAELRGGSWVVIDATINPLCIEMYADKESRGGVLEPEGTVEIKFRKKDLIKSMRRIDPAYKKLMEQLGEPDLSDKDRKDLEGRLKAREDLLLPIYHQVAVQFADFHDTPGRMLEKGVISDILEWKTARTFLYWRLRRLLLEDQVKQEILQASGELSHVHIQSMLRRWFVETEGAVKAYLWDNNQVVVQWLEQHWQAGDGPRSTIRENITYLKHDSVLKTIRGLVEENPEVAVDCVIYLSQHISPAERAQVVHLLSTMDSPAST
row,IC50,Compound
1,3.7 µM,CC(=O)N[C@@H](C)/C=C/c1cnc(Oc2ccc(OCC3CC3O)cc2Cl)nc1 (some centres unmarked) [Compound I-379]
2,0.022 µM,CC(=O)N[C@@H](C)/C=C/c1ccc(Oc2ccc(CC3CC3)cc2Cl)nc1 [Compound I-380]
3,0.36 µM,CC(=O)N[C@@H](C)/C=C/c1cc(Oc2ccc(OCC3CC3)cc2Cl)no1 [Compound I-381]
4,1.3 µM,CC(=O)N[C@@H](C)/C=C/c1ccc(Oc2ccc(N3CCOCC3)cc2Cl)nc1 [Compound I-382]
5,0.029 µM,CC(=O)N[C@@H](C)/C=C/c1ccc(Oc2ccc(N3CCCCC3)cc2Cl)nc1 [Compound I-383]
6,0.28 µM,CCCc1ccc(Oc2ccc(/C=C/[C@H](C)NC(=O)CO)cn2)c(Cl)c1 [Compound I-384]
7,0.16 µM,CCCc1cc(Cl)c(Oc2ccc(/C=C/[C@H](C)NC(C)=O)cn2)c(Cl)c1 [Compound I-385]
8,0.4 µM,CCCc1ccc(Oc2ccc(/C=C/[C@H](C)NC(=O)CNC(=O)OC(C)(C)C)cn2)c(Cl)c1 [Compound I-386]
9,0.56 µM,CCCc1cc(Cl)c(Oc2ccc(/C=C/[C@H](C)NC(N)=O)cn2)c(Cl)c1 [Compound I-387]
10,2 µM,CCCn1cc(Oc2ccc(/C=C/[C@H](C)NC(C)=O)cn2)cn1 [Compound I-388]
11,0.024 µM,CCC(F)(F)c1ccc(Oc2ccc(/C=C/[C@H](C)NC(C)=O)cn2)c(Cl)c1 [Compound I-389]
12,0.047 µM,CCCc1ccc(Oc2ccc(/C=C/[C@H](C)NC(=O)c3ccnc(C(=O)NCCO)c3)cn2)c(Cl)c1 [Compound I-391]
13,0.97 µM,CCCc1ccc(Oc2ccc(/C=C/[C@H](C)NC(=O)CNC(C)=O)cn2)c(Cl)c1 [Compound I-392]
14,0.048 µM,CCC(F)(F)c1ccc(Oc2ccc(/C=C/[C@H](C)NC(N)=O)cn2)c(Cl)c1 [Compound I-393]
15,0.012 µM,COc1c(OCC2CC2)ccc(Oc2cnc(/C=C/[C@H](C)NC(C)=O)cn2)c1Cl [Compound I-394]
16,4.2 µM,CC(=O)N[C@@H](C)/C=C/c1cc(Oc2ccc(OCC3CC3)cc2Cl)nn1C [Compound I-395]
17,0.055 µM,CC(=O)N[C@@H](C)/C=C/c1ccc(Oc2ccc(C(F)(F)C(C)C)cc2Cl)nc1 [Compound I-396]
18,0.015 µM,CC(=O)N[C@@H](C)/C=C/c1ccc(Oc2ccc3c(c2)CCC3)nc1 [Compound I-397]
19,0.043 µM,CC(=O)N[C@@H](C)/C=C/c1ccc(Oc2ccc3c(c2)CCCC3)nc1 [Compound I-398]
20,0.068 µM,CC(C)C(F)(F)c1ccc(Oc2ccc(/C=C/[C@H](C)NC(N)=O)cn2)c(Cl)c1 [Compound I-399]
21,3.2 µM,CCC1(c2ccc(Oc3ccc(/C=C/[C@H](C)NC(C)=O)cn3)c(Cl)c2)COC1 [Compound I-400]
22,0.056 µM,CC(=O)N[C@@H](C)/C=C/c1ccc(Oc2ccc(C3CCC3)cc2Cl)nc1 [Compound I-401]
23,1.1 µM,CC(=O)N[C@@H](C)/C=C/n1cc(Oc2ccc(OCC3CC3)cc2Cl)cn1 [Compound I-402]
24,0.45 µM,CCCc1ccc(Oc2ccc(/C=C/[C@H](C)NC(C)=O)cn2)c(C#N)c1 [Compound I-403]
25,0.19 µM,CCCc1ccc(Oc2ccc(/C=C/[C@H](C)NC(C)=O)cn2)cc1C#N [Compound I-404]

row,IC50,Compound
1,1.2 µM,CCCc1ccc(Oc2ccc(/C=C/[C@H](C)NC(=O)CC(=O)OC(C)(C)C)cn2)c(Cl)c1 [Compound I-405]
2,0.3 µM,CC(=O)N[C@@H](C)/C=C/c1cnc(Oc2cc(O)c(OCC3CC3)cc2Cl)nc1 [Compound I-406]
3,2.1 µM,COc1cc(Oc2ncc(/C=C/[C@H](C)NC(C)=O)cn2)c(Cl)cc1OCC1CC1 [Compound I-407]
4,2.3 µM,CCCc1ccc(Oc2ccc(/C=C/[C@H](C)NC(C)=O)cn2)c(-c2ccccc2)c1 [Compound I-408]
5,0.025 µM,CC(=O)N[C@@H](C)/C=C/c1ccc(Oc2ccc(C(C)(C)C(F)(F)F)cc2Cl)nc1 [Compound I-409]
6,0.15 µM,CCOc1ccc(Oc2ccc(/C=C/[C@H](C)CC(=O)NC)cn2)c(Cl)c1 [Compound I-410]
7,0.077 µM,CCCc1ccc(Oc2ncc(/C=C/[C@H](C)NC(C)=O)s2)c(Cl)c1 [Compound I-411]
8,0.2 µM,CC(=O)N[C@@H](C)/C=C/c1ccc(Oc2ccc(-c3cnccn3)cc2Cl)nc1 [Compound I-412]
9,0.036 µM,CC(=O)N[C@@H](C)/C=C/c1ccc(Oc2ccc(-c3nc4ccccc4o3)cc2Cl)nc1 [Compound I-414]
10,0.12 µM,CC(=O)N[C@@H](C)/C=C/c1ccc(Oc2ccc(-c3nc4ccccc4s3)cc2Cl)nc1 [Compound I-415]
11,0.17 µM,CC(=O)N[C@@H](C)/C=C/c1ccc(Oc2ccc(-c3nccs3)cc2Cl)nc1 [Compound I-416]
12,0.057 µM,CC(=O)N[C@@H](C)/C=C/c1ccc(Oc2ccc(-c3cnc(C(F)(F)F)cn3)cc2Cl)nc1 [Compound I-417]
13,0.097 µM,CC(=O)N[C@@H](C)/C=C/c1ccc(Oc2ccc(-c3ncccn3)cc2Cl)nc1 [Compound I-418]
14,0.048 µM,CC(=O)N[C@@H](C)/C=C/c1ccc(Oc2ccc(-c3ncc(C(F)(F)F)cn3)cc2Cl)nc1 [Compound I-419]
15,0.052 µM,CC(=O)N[C@@H](C)/C=C/c1ccc(Oc2ccc(-c3ccc(C(F)(F)F)cn3)cc2Cl)nc1 [Compound I-421]
16,1.3 µM,CCCc1ccc(Oc2ccc(/C=C/[C@H](C)NC(=O)Cc3ccccn3)cn2)c(Cl)c1 [Compound I-422]
17,3 µM,CCCc1ccc(Oc2ccc(/C=C/[C@H](C)NC(=O)Cc3nccs3)cn2)c(Cl)c1 [Compound I-423]
18,0.14 µM,CC(=O)N[C@@H](C)/C=C/c1ccc(Oc2ccc3sc(C)nc3c2)nc1 [Compound I-424]
19,0.04 µM,CC(=O)N[C@@H](C)/C=C/c1ccc(Oc2ccc3nc(C)sc3c2)nc1 [Compound I-425]
20,0.026 µM,CC(=O)N[C@@H](C)/C=C/c1ccc(Oc2cc3c(cc2Cl)CCC3)nc1 [Compound I-426]
21,0.2 µM,CC(=O)N[C@@H](C)/C=C/c1cnc(Oc2ccc(C(C)(C)C(F)(F)F)cc2Cl)nc1 [Compound I-427]
22,0.17 µM,CC(=O)N[C@@H](C)/C=C/c1cnc(Oc2ccc(C(C)(C)C(F)(F)F)cc2Cl)cn1 [Compound I-428]
23,0.05 µM,CC(=O)N[C@@H](C)/C=C/c1ccc(Oc2ccc3c(c2)CCO3)nc1 [Compound I-429]
24,2.7 µM,CCOc1ccc(Oc2ncc(/C=C/[C@H](C)NC(C)=O)cc2N)c(Cl)c1 [Compound I-430]

# Same assay, conditions: inhibition activity on human ACC2, Table 82; read-out: IC50
row,IC50,Compound
1,0.016 µM,CC(=O)N[C@@H](C)/C=C/c1ccc(Oc2ccc(C3=CCC4(CC3)CC4)c(Cl)c2)nc1 [Compound I-378]

# Same assay, conditions: inhibition activity on human ACC2, Table 84; read-out: IC50
row,IC50,Compound
1,0.085 µM,CCC(=O)c1ccc(Oc2ncc(/C=C/[C@H](C)NC(C)=O)s2)c(Cl)c1 [Compound I-431]
2,0.52 µM,CCCc1ccc(Oc2ncc(/C=C/[C@H](C)NC(C)=O)cn2)c(Cl)c1 [Compound I-432]
3,0.049 µM,CCCc1ccc(Oc2cnc(/C=C/[C@H](C)NC(C)=O)cn2)c(Cl)c1 [Compound I-433]
4,0.1 µM,CC(=O)N[C@@H](C)/C=C/c1ccc(Oc2ccc(C3(C)CC3(F)F)cc2Cl)nc1 (some centres unmarked) [Compound I-434]
5,0.024 µM,CC(=O)N[C@@H](C)/C=C/c1ccc(Oc2ccc3c(c2Cl)CCC3)nc1 [Compound I-435]
6,0.058 µM,CCC(CC)c1ccc(Oc2ccc(/C=C/[C@H](C)NC(C)=O)cn2)c(Cl)c1 [Compound I-436]
7,0.033 µM,CCCc1ccc(Oc2ccc(/C=C/[C@H](C)NC(C)=O)cn2)c(C)c1 [Compound I-437]
8,0.082 µM,CCCc1ccc(Oc2ccc(/C=C/[C@H](C)NC(C)=O)cn2)c(C(F)(F)F)c1 [Compound I-439]
9,0.02 µM,CCCc1ccc(Oc2ccc(/C=C/[C@H](C)NC(C)=O)cn2)c(Cl)c1Cl [Compound I-440]
10,0.69 µM,CCOC(=O)c1cnc(Oc2ccc(Oc3ccc(/C=C/[C@H](C)NC(C)=O)cn3)c(Cl)c2)s1 [Compound I-441]
11,0.065 µM,CCOc1ccc(Oc2ncc(/C=C/[C@H](C)NC(C)=O)cc2C)c(Cl)c1 [Compound I-442]
12,0.022 µM,CC(=O)N[C@@H](C)/C=C/c1cnc(Oc2ccc(OCC3CC3)cc2Cl)c(C)c1 [Compound I-443]
13,0.042 µM,CC(=O)N[C@@H](C)/C=C/c1ccc(Oc2ccc3c(c2)CCCO3)nc1 [Compound I-444]
14,0.26 µM,CC(=O)N[C@@H](C)/C=C/c1cnc(Oc2ccc(OCC3CC3)cc2Cl)c(C#N)c1 [Compound I-445]
15,0.073 µM,CCOc1ccc(Oc2ncc(/C=C/[C@H](C)NC(C)=O)cc2F)c(Cl)c1 [Compound I-446]
16,0.025 µM,CC(=O)N[C@@H](C)/C=C/c1cnc(Oc2ccc(OCC3CC3)cc2Cl)c(F)c1 [Compound I-447]
17,0.18 µM,CC(=O)N[C@@H](C)/C=C/c1ccc(Oc2ccc3c(c2)OCC3)nc1 [Compound I-448]
18,0.13 µM,CC(=O)N[C@@H](C)/C=C/c1ccc(Oc2ccc3c(c2)OCCC3)nc1 [Compound I-449]
19,0.06 µM,CC(=O)N[C@@H](C)/C=C/c1ccc(Oc2ccc(OCc3ccccc3)cc2Cl)nc1 [Compound I-450]
20,0.025 µM,CC(=O)N[C@@H](C)/C=C/c1ccc(Oc2ccc(Oc3ccc([N+](=O)[O-])cc3)cc2Cl)nc1 [Compound I-451]
21,0.042 µM,CC(=O)N[C@@H](C)/C=C/c1ccc(Oc2ccc(Oc3ccc(C#N)cc3)cc2Cl)nc1 [Compound I-452]
22,0.73 µM,CC(=O)N[C@@H](C)/C=C/c1ccc(Oc2ccc(Oc3cncs3)cc2Cl)nc1 [Compound I-453]
23,0.037 µM,CC(=O)N[C@@H](C)/C=C/c1ccc(Oc2ccc(-c3ncc(F)cn3)cc2Cl)nc1 [Compound I-454]
24,0.03 µM,CC(=O)N[C@@H](C)/C=C/c1ccc(Oc2ccc3nc(C)sc3c2Cl)nc1 [Compound I-455]
25,0.45 µM,CC(=O)N[C@@H](C)/C=C/c1ccc(Oc2ccc3c(C)noc3c2)nc1 [Compound I-456]
26,0.31 µM,CC(=O)N[C@@H](C)/C=C/c1ccc(Oc2cc(C)c(C)cc2Cl)nc1 [Compound I-457]
27,0.026 µM,CCCc1cc(Cl)c(Oc2ccc(/C=C/[C@H](C)NC(C)=O)cn2)cc1Cl [Compound I-458]
